Assays:
Assay type in all cases: physicochemical
[1] = biological target: T1, RSV pre-fusion F (preF) protein of SEQ ID NO: 10 (Human respiratory syncytial virus A, UniProt P03420, D486N/DEL108-136/I379V/M447V/N67I/P102A/S215P); assay: Dialysis and slow freezing, trimer by analytical SEC
T1 construct: made in house
Description: (§1) Vials were frozen to −70° C. in 24 hours under controlled conditions. Samples were subsequently thawed to RT and analyzed by analytical Size Exclusion Chromatography (SEC) to measure loss of RSV F trimer compared the sample that was kept at 4° C. In addition, the dialyzed materials with and without stabilizing compound III were evaluated in DSF to measure the melting temperature. For experimental details see example 2.

[2] = biological target: T1, RSV pre-fusion F (preF) protein of SEQ ID NO: 10; assay: UF/DF buffer exchange and slow freezing, aggregation by analytical SEC; details: for aggregation after buffer exchange and slow freezing: 1:50
Description: Buffer exchange of samples with and without stabilizing compound III was performed by ultrafiltration/diafiltration (UF/DF), using a Cogent μScale TFF system (Merck). […] Stabilizing compound III was preincubated with the sample and in one case also added to the buffer used for the UF/DF (see FIG. 12 labeled 1:3 & In Buffer). Runs were performed using Pelicon XL Biomax 50 cm2 filter cassettes. For each run, the system was flushed with MilliQ water at a crossflow of 30-50 mL/min, then the system was cleaned with NaOH 0.1M (recirculated for at least 5 min.) After this, the system was flushed again with MilliQ water until a pH of 7 was reached, followed by a 5 min. flush of the system with the desired buffer. Subsequently, the protein (50 mL) was added to the system for diafiltration against 7 diavolumes (350 mL) of the desired buffer.
as §1, with “Each formulation (pre and post UF/DF samples) was diluted to 0.3 mg/ml. 0.75 ml of each formulation was filled in glass injection vials with rubber stopper and sealed with aluminum caps. Vials” for “Vials”, “different formulations” for “dialyzed materials”
Stabilizing compound III was added in a 1:50 trimer:compound ratio before the UD/DF and incubated for 24 hours at […] The excess of unbound stabilizing compound III is removed during the UF/DF process.
Each formulation (pre and post dialysis samples) was diluted to 0.3 mg/ml. 0.75 ml of each formulation was filled in glass injection vials with rubber stopper and sealed with aluminum caps. Vials were slowly frozen to −70° C. in 24 hours. Samples were subsequently thawed to RT and analyzed by analytical Size Exclusion Chromatography (SEC) to measure loss of RSV F trimer compared the sample that was kept at 4° C. In addition, the different formulations with and without compound III were evaluated in DSF to measure the melting temperature. For experimental details see example 2.

[3] = biological target: T2, RSV pre-fusion F protein of SEQ ID NO: 10 (Human respiratory syncytial virus A, UniProt P03420, D486N/DEL108-136/I379V/M447V/N67I/P102A/S215P); details: phosphate buffer (Formulation 1), preF 0.3 mg/ml, 1:3 trimer:compound, RT to −70° C. in 24 hours
T2 construct: made in house
Description: The RSV pre-fusion F protein of SEQ ID NO: 10 was diluted to 0.3 mg/ml in phosphate buffer (Formulation 1) and 0.75 ml was filled in glass injection vials with rubber stopper and sealed with aluminum caps. Additionally, protein was diluted in the formulation buffers with inhibitor in a 1:3 trimer:compound ratio. One inhibitor binds one trimer so with a 1:3 ratio there is an excess of inhibitor. […] In 24 hours, samples were cooled down from RT to −70° C. Samples were thawed to RT and analyzed by analytical Size Exclusion Chromatography (SEC) to measure loss of RSV F trimer.
0.75 ml of each formulation was filled in glass injection vials with rubber stopper and sealed with aluminum caps. Additionally, protein was diluted in the formulation buffers and inhibitor was added in a 1:1, 1:3, 1:9, 1:27 and 1:50 trimer: compound ratio. Final compound concentrations were 1.7×10^−6 M, 5.2×10^−6 M, 1.6×10^−5M, 4.6×10^−5, and 8.6×10^−5 M, respectively. Vials were slowly frozen to −70° C. in 24 hours. Samples were subsequently thawed to RT and analyzed by analytical Size Exclusion Chromatography (SEC) to measure loss of RSV F trimer compared the sample that was kept at 4° C.

[4] = biological target: T1, RSV pre-fusion F (preF) protein of SEQ ID NO: 10; assay: Quantification of stabilizing compound III after UF/DF by LC-MS/MS; details: high excess (1:50) added before UF/DF
Description: FIG. 13. Buffer exchange using different buffers & and excess stabilizing compound III. Samples that contained stabilizing compound III, were pre-incubated for 24 h at room temperature (RT). […] Then, samples were assessed for (a) aggregation level by analytical SEC, (b) melting temperature by DSF (Day 0). Individual replicates (n=5 for slow freeze; n=3 for DSF), mean and error bars indicating the standard deviation are depicted. (c) Quantification of stabilizing compound III after UF/DF. Samples that were previously UF/DF-ed and snap frozen were used to quantify the amount of FI left after buffer exchange. Quantification was performed using a LC-MS/MS. Plotted in the left Y axis the concentration from each sample. Right Y axis corresponds to the equivalence of stabilizing compound III molecules per trimer.
Additionally, the concentration of stabilizing compound III present in the samples after UF/DF was determined by LC-MS/MS.

CS(=O)(=O)CCCn1c(Cn2c(=O)n(C3CC3)c3ccncc32)nc2cc(Br)ccc21 [Compound III, 3-[[5-bromo-1-(3-methylsulfonylpropyl)benzimidazol-2-yl]methyl]-1-cyclopropyl-imidazo[4,5-c]pyridin-2-one]
trimer after dialysis and slow freezing ([1]; 1:3 and 1:30 trimer:compound): higher than 90%
aggregation after slow freezing ([1]; pre- and post-dialysis samples, 1:3 and 1:30): protected from aggregation
aggregation after buffer exchange and subsequent slow freezing ([2]; 1:50 trimer:compound before UF/DF, irrespective of the buffer): protected from aggregation
aggregation after buffer exchange and slow freezing ([2]; AP1 buffer): did not provide enough protections against aggregation
aggregation after buffer exchange and slow freezing ([2]; Formulation 1 without PS20): provided protection against aggregation
aggregation after UF/DF and slow freezing ([2]; Formulation buffer 6, irrespective of compound concentration): protected from aggregation
trimer signal lost after slow freeze/thaw (analytical SEC) [3]: 2.0+/−2.0%
compound bound after UF/DF (LC-MS/MS) [4]: ~2.6 molecules of stabilizing compound III per trimer

Reference: patent US20230310573A1, “Stabilized Vaccine Compositions” (priority 2020, published 2023)
